Series [1] in a line: in vivo. As to conditions: BALB/c, mouse, iv, 1 mg/kg.
Series [2] can be described thus: in vivo. To be noted: BALB/c, mouse, po, 10 mg/kg.
A short description of series [3]: in vivo. As to conditions: BALB/c, mouse, iv, 1 mg/kg. This is another data set of the same source.
Series [4] can be described thus: in vivo. To be noted: BALB/c, mouse, iv, 1 mg/kg. This is another data set of the same source.
Series [5] can be described thus: in vivo. To be noted: BALB/c, mouse, po, 10 mg/kg. The source holds these as a separate data set.
Series [6] is described as follows: in vivo. To be noted: BALB/c, mouse, po, 10 mg/kg. This is another data set of the same source.

`CC(C)(O)c1cc(Nc2cc(Oc3cn(C4CC4)nc3C3CCOCC3)ccn2)ccn1` [LY-3200882]: the half-life at 24 h is 24 min in series [1] and 66 min in series [5]. For the same compound, in series [2], the Cmax at 24 h amounted to 747 ng/mL. The compound also had a clearance at 24 h in series [3] of 86.7 mL/min/kg. Also, the Vd at 24 h in series [4] stood at 2.3 L/kg. This compound also came in with a bioavailability at 24 h in series [6] of 45.6%.

In general, half-life refers to how long it takes for the measured level to halve. Higher therefore signals slow loss. In general, Cmax refers to the highest concentration seen after dosing. What is called clearance is a measure of how efficiently the substance is removed, as volume per time. Usually Vd stands for a proportionality between amount in the body and measured concentration, not a real space. The low end stands for little distribution into tissue, the high end for wide distribution into tissue. By bioavailability is commonly meant dose-corrected exposure relative to a reference, in per cent. High values mean good availability, low ones poor availability.

These data come from ChEMBL document CHEMBL4765311, “Synthesis and biological evaluation of 4-(pyridin-4-oxy)-3-(3,3-difluorocyclobutyl)-pyrazole derivatives as novel potent transforming growth factor-β type 1 receptor inhibitors” (Eur J Med Chem, 2020).
